{"source": "patent US11007250B2", "about": "“Methods and kits for treating pain” (Duke University, priority 2017, dated 2021)", "key": {"[1]": {"system": "lamina 110 neurons in spinal cord slices", "assay": "Patch clamp recordings of sEPSCs in spinal cord slices", "type": "cell-based, mouse", "settings": "Nivolumab 300 ng/ml"}, "[2]": {"system": "spinal wide dynamic range (WDR) neurons", "assay": "Extracellular recording of spinal WDR neurons in bone cancer rats in vivo", "parameters": "species or system rat", "settings": "PD-L1 20 μg i.t., day 14; Nivolumab 10 μg i.t., day 8", "procedure": "Rat bone cancer pain model. Tumor cells were extracted from the ascetic fluid of rats that received Walker 256 rat mammary gland carcinoma cells, and suspension of 1×10^8/ml tumor cells in PBS was prepared. The inoculation was performed as previously described (Yang, Y, et al. J. Neurosci., 2015, 35:7950-7963). Briefly, rats were anesthetized with sodium pentobarbital (50 mg/kg, intraperitoneal). The right leg was shaved, and the skin was disinfected with iodine tincture and 75% ethanol. A 22-gauge needle was inserted at the site of the intercondylar eminence of the right tibia and was then replaced with a 10 μl microinjection syringe containing a 4 μl suspension of tumor cells (4×10^5). The contents of the syringe were slowly injected into the tibia cavity. To prevent leakage of cells outside the bone, the injection site was sealed with bone wax. […]\nExtracellular recording in rat spinal cord in vivo. […] The electrocardiogram was monitored, and the heart rate was maintained at 250-300/min. […] WDR neurons responding to innocuous stimulation and to a greater degree, noxious stimulation of the RF were analyzed in the present study. The recorded signals were amplified with a microelectrode amplifier (1800 A-M System, USA) and fed to computer via a CED 1401 interface for off-line analysis using the Spike 2 software (Cambridge Electronic Design, Cambridge, UK). […]"}, "melanoma-bearing mice": {"system": "melanoma-bearing mice", "assay": "Mouse melanoma model: spontaneous pain, von Frey test, CPP", "type": "in vivo", "settings": "MCI-4w"}, "[3]": {"system": "afferent fibers in sciatic nerve of melanoma-bearing mice", "assay": "Spontaneous discharge recordings in mouse sciatic nerve in vivo", "settings": "i.v. Nivolumab 10 mg/kg, MCI-4w, 3 h after injection", "description": "Spontaneous discharge recordings in mouse sciatic nerve in vivo. Adult male mice (25-32 g) were anaesthetized with urethane (1.5 g/kg, i.p.) and monitored for loss of hind paw pinch reflex with additional injections of urethane (0.2 g/kg). The animals were artificially ventilated with oxygen on a respirator. The left thigh was shaved and an incision made parallel to the femur. The muscle was parted by blunt forceps dissection to expose the sciatic nerve proximal to the trifurcation. A cuff electrode (Microprobes) was placed loosely around the full circumference of the sciatic nerve. Skin flaps were raised to enclose a pool of mineral oil that covered the exposed regions of nerve. The spontaneous discharges in the sciatic nerve were recorded with a microelectrode AC amplifier (1800, A-M systems), filtered (low cut-off 100 Hz and hi cut-off 20 kHz) and digitized at 20 kHz (Digidata 1440A, Molecular Devices). Data were stored with a personal computer using pCLAMP 10 software and analyzed with Offline Sorter software (Plexon, Dallas, Tex.) and Origin pro 8.0 (Origin Lab). The spikes of sciatic nerve were characterized as previously reported (Xu, Z Z, et al. 2015)."}, "[4]": {"system": "mice with LLC bone cancer", "assay": "Bone cancer pain model, Lewis lung cancer (LLC) cells in tibia", "type": "in vivo, mouse", "settings": "Nivolumab 10 mg/kg IV on day 0, 3, 7, 10, 14", "from_the_text": "(B) Cancer pain, as measured by mechanical pain sensitivity (paw withdrawal threshold) in von Frey test. (C) Mechanical allodynia (paw withdrawal frequency to a subthreshold filament, 0.4 g) in von Frey test. (D) Cold allodynia (lifting and licking time) in acetone test. (E) Heat hyperalgesia (paw withdrawal latency) in Hargreaves test. (B-E) n=9-11 mice in each group; Two-way ANOVA with Bonferroni's hoc-test; *P<0.05, compared with baseline; #P<0.05, compared with Saline group."}, "[5]": {"system": "tibia bone of mice with LLC bone cancer", "assay": "X-ray bone destruction score in LLC bone cancer model", "type": "in vivo, mouse", "settings": "Nivolumab 10 mg/kg IV; scores 8, 11 and 15 days after tumor inoculation", "procedure": "FIG. 27. Intravenous injections of Nivolumab protect against bone destruction after tumor inoculation. […] (B) X-ray images showing tibia bones 11 days after tumor inoculation. Arrows show bone destruction in saline-treated animals. (C) Bone destruction scores 8, 11, and 15 days after tumor inoculation. The scores were assessed as follows: Score 0, normal bone with no signs of destruction; Scorel, small radiolucent lesions indicative of bone destruction (one to three lesions); Score 2, increased number of lesions (three to six lesions) and loss of medullary bone; Score 3, loss of medullary bone and erosion of cortical bone; Score 4, full-thickness unicortical bone loss; Score 5, full-thickness bicortical bone loss and displaced skeletal fracture. n=9-11 in each group, male, 8-10 weeks; Two-way ANOVA with Bonferroni's hoc-test; *P<0.05, compared with baseline; #P<0.05, compared with Saline group; Scores n were shown by the arrows in B.\nSince cancers often become painful after metastasis to bone tissue, we examined the role of PD-1 in a bone cancer pain model following inoculation of Lewis lung cancer (LLC) cells into tibia bone cavity. […]"}, "[6]": {"settings": "PD-L1 30 ng/ml, sPD-1 30 ng/ml perfusion, 3 h"}}, "data": [{"substance": "Nivolumab: FDA-approved fully humanized IgG4 monoclonal anti-PD-1 antibody, Bristol-Myers Squibb", "values": [{"measurement": "effect on PD-L1's inhibition of sEPSC frequency", "setting": "[1]; 3 h incubation", "result": "blocked"}, {"measurement": "amplitude of spontaneous EPSCs (sEPSCs)", "setting": "[1]; [6]", "result": "not amplitude"}, {"measurement": "frequency of spontaneous EPSCs (sEPSCs)", "setting": "[1]; [6]", "result": "increased sEPSC frequency"}, {"measurement": "activity of WDR neurons in bone cancer rats", "setting": "[2]", "result": "enhanced activities of WDR neurons"}, {"measurement": "mechanical allodynia in melanoma-bearing mice", "setting": "melanoma-bearing mice; sPD-1 5 μg i.pl., siRNA 2 μg peri-sciatic, Nivolumab 3-10 mg/kg i.v., RMP1-14 10 mg/kg i.v.", "result": "rapid, persistent, and dose-dependent mechanical allodynia"}, {"measurement": "spontaneous pain (licking/flinching) in melanoma-bearing mice", "setting": "melanoma-bearing mice; sPD-1 5 μg i.pl., siRNA 2 μg peri-sciatic, Nivolumab 3-10 mg/kg i.v., RMP1-14 10 mg/kg i.v., SSG 5 μg i.pl.", "result": "marked spontaneous pain"}, {"measurement": "mechanical allodynia in melanoma-bearing mice after local injection", "setting": "melanoma-bearing mice; intrathecal or intraplantar route", "result": "evoked mechanical allodynia"}, {"measurement": "spontaneous discharges in nerve fibers", "setting": "[3]", "result": "significantly increased spontaneous discharges"}, {"measurement": "cancer pain days after each treatment", "setting": "[4]", "result": "sustained beneficial effects on cancer pain relief"}, {"measurement": "tibia bone destruction during cancer progression (X-ray)", "setting": "[5]", "result": "protected"}]}]}
